Experimental data as given in patent US20210308103A1, “TASK-1 INHIBITORS FOR TREATMENT OF ATRIAL ARRHYTHMIAS” (Universität Heidelberg, priority 2018, published 2021).
Where two headings read alike, the source gives them in different places.

Tests used:
in vivo = details: pig
Description: FIG. 4: Quantification of doxapram and ketodoxapram in porcine tissue samples. A) doxapram and ketodoxapram were quantified in brain tissue samples (CNS) and plasma samples of two pigs; B) Concentrations of doxapram and ketodoxapram in brain tissues of pigs treated with doxapram, which was metabolized to ketodoxapram.
FIG. 6: Correlation between plasma concentration and brain concentration of doxapram and its metabolite ketodoxapram in pigs after intravenous administration of doxapram; pig numbers and their group status are indicated (SR: sinus rhythm; AF: atrial fibrillation).
FIG. 7: Correlation between plasma concentration and brain concentration of ketodoxapram in pigs after intravenous administration of ketodoxapram; pig numbers and their group status are indicated (AF: atrial fibrillation).
FIG. 8: Short-term distribution of doxapram and its metabolite ketodoxapram in pigs 30 min after administration of doxapram; pig numbers and their group status are indicated (SR: sinus rhythm).
Quantification of ketodoxapram and doxapram in porcine tissues. In two pigs, doxapram and ketodoxapram were administered and quantified in brain tissue samples (CNS) and plasma samples (FIG. 4A).
(§1) Analysis of doxapram and ketodoxapram in tissues. Mass spectrometry, in particular liquid chromatography tandem-mass spectrometry (LC-MS/MS) with deuterated internal standard, was used to quantify the concentrations of doxapram and ketodoxapram in tissue samples and plasma.
Pigs with sinus rhythm or atrial fibrillation were treated with intravenous doxapram and plasma and brain samples were taken essentially simultaneously.
In two pigs, doxapram and ketodoxapram concentrations were determined in brain and plasma 30 min after intravenous administration.

porcine TASK-1 = porcine TASK-1 (Sus scrofa, UniProt A0A286ZMZ4); assay: TASK-1 current inhibition, voltage clamp in Xenopus laevis oocytes (porcine channel); assay type: cell-based; details: FIG. 1A
porcine TASK-1, sequence (A0A286ZMZ4 1-401): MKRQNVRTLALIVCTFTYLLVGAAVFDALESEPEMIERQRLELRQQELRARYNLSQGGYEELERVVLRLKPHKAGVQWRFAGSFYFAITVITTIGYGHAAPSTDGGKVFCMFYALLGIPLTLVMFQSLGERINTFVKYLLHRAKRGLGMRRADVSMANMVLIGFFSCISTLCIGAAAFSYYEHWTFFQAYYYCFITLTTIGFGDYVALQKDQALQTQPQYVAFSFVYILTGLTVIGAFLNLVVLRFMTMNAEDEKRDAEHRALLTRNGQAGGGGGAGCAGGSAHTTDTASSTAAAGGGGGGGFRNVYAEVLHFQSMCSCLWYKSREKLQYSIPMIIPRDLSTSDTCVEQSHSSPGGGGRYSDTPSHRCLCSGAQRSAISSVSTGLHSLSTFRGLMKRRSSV
Description: FIG. 1: Inhibitory effects of doxapram and ketodoxapram on TASK-1 K-ion channels, recorded by voltage-clamp measurements in Xenopus laevis oocytes. A) Concentration-effect curve for doxapram on porcine TASK-1; B) Concentration-effect curve for doxapram on human TASK-1; C) Concentration-effect curve for ketodoxapram on human TASK-1; […] E) Inhibition of TASK-1 by doxapram, ketodoxapnram, and mixtures thereof. Concentration-response curves for ketodoxapram and doxapram. TASK-1 current inhibition was recorded by voltage clamp measurements in Xenopus laevis oocytes according to standard protocols.

[1] = system: atrial fibrillation (AF) in humans; assay: Cardioversion of atrial fibrillation in humans; assay type: in vivo, human; details: injection via peripheral venous catheter, dose adapted to body weight
Protocol: For cardioversion of atrial fibrillation (AF) in humans, doxapram can be injected via a peripheral venous catheter. The dose will be adapted to the body weight of the patient. Cardioversion is achieved within a few minutes (<30 minutes). The ECG of the patient is continuously monitored to detect the presence of atrial fibrillation (AF) or successful cardioversion. In case of an unsuccessful cardioversion, a second dose can be applied. If AF is present after applying the second dose, a conventional electrical cardioversion can be performed. To prevent AF episodes, patients can receive repeated a maintenance doses adapted to the body weight for oral or intravenous application.

Kv1.5 = target: T1, Kv1.5 (Homo sapiens, UniProt P22460); assay: Ion channel current inhibition in Xenopus laevis oocytes, Kv1.5; assay type: cell-based; details: FIG. 1D
T1 construct: expressed in transfected cells; host or cells: Xenopus laevis oocytes
T1 sequence (P22460 whole entry): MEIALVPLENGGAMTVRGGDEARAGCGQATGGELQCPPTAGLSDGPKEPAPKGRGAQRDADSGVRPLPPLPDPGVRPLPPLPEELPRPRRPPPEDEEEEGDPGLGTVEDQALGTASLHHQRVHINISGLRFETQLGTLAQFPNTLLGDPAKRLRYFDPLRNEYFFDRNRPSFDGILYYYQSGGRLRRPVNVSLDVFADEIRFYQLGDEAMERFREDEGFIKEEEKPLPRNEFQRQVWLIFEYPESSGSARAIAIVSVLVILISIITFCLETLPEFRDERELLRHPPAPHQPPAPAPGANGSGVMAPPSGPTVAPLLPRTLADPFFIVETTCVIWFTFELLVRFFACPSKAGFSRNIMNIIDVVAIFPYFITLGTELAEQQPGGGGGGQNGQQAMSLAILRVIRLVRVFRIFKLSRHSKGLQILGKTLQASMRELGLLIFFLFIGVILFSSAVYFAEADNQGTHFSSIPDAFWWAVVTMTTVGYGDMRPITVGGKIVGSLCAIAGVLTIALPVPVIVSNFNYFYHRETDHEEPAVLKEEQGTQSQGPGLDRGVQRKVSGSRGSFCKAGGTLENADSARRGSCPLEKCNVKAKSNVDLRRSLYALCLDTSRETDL
Description: (§2) FIG. 1: Inhibitory effects of doxapram and ketodoxapram on TASK-1 K-ion channels, recorded by voltage-clamp measurements in Xenopus laevis oocytes. A) Concentration-effect curve for doxapram on porcine TASK-1; B) Concentration-effect curve for doxapram on human TASK-1; C) Concentration-effect curve for ketodoxapram on human TASK-1; […] E) Inhibition of TASK-1 by doxapram, ketodoxapnram, and mixtures thereof. The ion channels TASK-1 ([…].1), Kv4.3, Kv1.5, Kv2.1, Kir3.1/4, Kv1.4 are predominantly expressed in the atrial myocardium. The ion channel TASK-3 ([…].1) is not expressed in the human myocardium but structurally related to TASK-1 (Schmidt C et al. (2015), Circulation 132(2): 82). Ion channel current inhibition was measured in Xenopus laevis oocytes (FIG. 1 D)).

[2] = system: pigs with persistent atrial fibrillation; assay: Cardioversion of pacing-induced persistent atrial fibrillation in pigs; assay type: in vivo, pig
Protocol: Doxapram and ketodoxapram were successfully applied for cardioversion in pigs. To induce atrial fibrillation in pigs, at first, pacemakers were implanted. Atrial fibrillation was induced by atrial rapid pacing. […] On average, pharmacological cardioversion to sinus rhythm was successful 3 minutes after injection of doxapram or ketodoxapram.

pigs = assay: Adverse effects observed in pigs on overdosing; assay type: in vivo, pig; details: pigs 40-60 kg body weight
Protocol: Adverse effects observed in pigs. […] These effects were not observed when an overdose of ketodoxapram was administered.

TASK-1 [3] = target: T2, TASK-1 (Homo sapiens, UniProt O14649); assay: TASK-1 current inhibition, voltage clamp in Xenopus laevis oocytes (human channel); assay type: cell-based; design: expressed in transfected cells; host or cells: Xenopus laevis oocytes; details: for Competition between ketodoxapram and doxapram at TASK-1: both compounds present, FIG. 1E; for IC50: voltage clamp, FIG. 1B/1C
T2 sequence (O14649 whole entry): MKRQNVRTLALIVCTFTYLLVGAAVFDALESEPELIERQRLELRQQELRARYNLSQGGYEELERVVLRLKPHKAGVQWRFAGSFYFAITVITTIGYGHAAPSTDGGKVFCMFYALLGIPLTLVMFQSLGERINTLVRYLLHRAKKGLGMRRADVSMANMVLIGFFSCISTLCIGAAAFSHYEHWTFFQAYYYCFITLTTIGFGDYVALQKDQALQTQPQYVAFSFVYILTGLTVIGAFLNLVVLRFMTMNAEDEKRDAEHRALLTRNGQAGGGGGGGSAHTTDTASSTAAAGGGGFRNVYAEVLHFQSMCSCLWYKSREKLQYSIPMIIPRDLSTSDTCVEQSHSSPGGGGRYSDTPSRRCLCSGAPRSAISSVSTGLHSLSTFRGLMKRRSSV
Description: as §2, with “thereof. Concentration-response curves for ketodoxapram and doxapram. TASK-1 current inhibition was recorded by voltage clamp measurements in Xenopus laevis oocytes according to standard protocols. […]” for “thereof.”, “D)). […] To test for competition between ketodoxapram and doxapram, concentration-response curves were determined by measuring TASK-1 current inhibition recorded by voltage clamp measurements in Xenopus laevis oocytes.” for “D)).”

[4] = oral administration of enteric-coated doxapram; cited from earlier work
[5] = Plasma trough concentrations in pigs during long-term administration; assay type: in vivo, pig; details: repeated intravenous doses of doxapram over 18 days, FIG. 9
Protocol: FIG. 9: Plasma trough concentrations of doxapram and its metabolite ketodoxapram in pigs during repetitive intravenous administration of doxapram over 18 days.
FIG. 10: Plasma concentrations of ketodoxapram in pigs during long-term administration of ketodoxapram.
Pigs were administered repeated doses of doxapram over a period of several days.

[6] = Plasma pharmacokinetics in pigs after intravenous doxapram; assay type: in vivo, pig; details: for Tmax / AUC(0-inf) / Cmax / AUC / half-life: 1.8 mg/kg body weight; for Tmax / AUCextra / AUC(0-inf) / Cmax / AUC / half-life: intravenous bolus of doxapram; for AUC(0-inf) / Cmax / AUC / half-life: pig, plasma, iv; for AUC: read-out: AUC0-n
Description: FIG. 3: Pharmacokinetics of doxapram and ketodoxapram in pigs after intravenous administration. Concentration of doxapram and ketodoxapram, respectively, as measured in plasma samples taken at the indicated time points.
Pharmacokinetics of doxapram and ketodoxapram.
as §1
Doxapram was administered as an intravenous bolus to pigs and plasma concentration was determined over time.

TASK-1 [7] = target: T2, TASK-1; assay: TASK-1 current inhibition, patch-clamp in human atrial cardiomyocytes; assay type: cell-based; design: human atrial cardiomyocytes isolated from heart auricles of patients with sinus rhythm; endogenous in cells; host or cells: human atrial cardiomyocytes from heart auricles of patients with sinus rhythm; details: cardiomyocytes from heart auricles of patients with sinus rhythm, FIG. 2
Description: FIG. 2: Effects of ketodoxapram and doxapram in human atrial cardiomyocytes recorded by voltage-clamp measurements.

[8] = Pharmacokinetics in a horse after three intravenous doses of doxapram; assay type: in vivo; details: FIG. 11
Protocol: FIG. 11: Pharmacokinetics of doxapram and its metabolite ketodoxapram in a horse after three intravenous administrations of doxapram.
Three intravenous doses of doxapram were administered to a horse.

[9] = iv, Brain concentration as percentage of plasma concentration
[10] = intravenous 1.8 mg per kg body weight
[11] = Xenopus laevis oocytes, FIG. 1D
[12] = average of pigs 98, 99, 100, plasma
[13] = average of pigs 98, 99, 100, plasma, read-out: T1/2 (converted)
[14] = pig 98, plasma, read-out: T1/2 (converted)
[15] = pig 99, plasma, read-out: T1/2 (converted)
[16] = pig 100, plasma, read-out: T1/2 (converted)
[17] = pigs, summary of Table 1, read-out: Elimination half-life
[18] = intravenous 0.5 mg per kg body weight

| Plasma concentrations of doxapram and ketodoxapram relative to each other (in vivo) | Inhibition of ion channel Kv1.5 (Kv1.5) | IC50 (TASK-1 [3]; Xenopus laevis oocytes) [µM] | Course of plasma trough concentrations [5] | Tmax ([6]; pig 98, plasma) [h] | AUCextra [6, 12] [%] | AUCextra ([6]; pig 98, plasma) [%] | AUCextra ([6]; pig 99, plasma) [%] | AUCextra ([6]; pig 100, plasma) [%] | AUC(0-inf) [6, 12] [µg·h/mL] | Cmax [6, 12] [µg/mL] | AUC [6, 12] [µg·h/mL] | half-life [6, 13] [h] | AUC(0-inf) ([6]; pig 98, plasma) [µg·h/mL] | Cmax ([6]; pig 98, plasma) [µg/mL] | AUC ([6]; pig 98, plasma) [µg·h/mL] | SMILES | Central nervous adverse effects (pigs) | Most strongly inhibited ion channel among TASK-1, TASK-3, Kv4.3, Kv1.5, Kv2.1, Kir3.1/4, Kv1.4 (TASK-1 [3]; [11]) | Competition between ketodoxapram and doxapram at TASK-1 (TASK-1 [3]) | Concentrations of doxapram and ketodoxapram in plasma relative to each other [4] | further results |
| --- | --- | --- | --- | --- | --- | --- | --- | --- | --- | --- | --- | --- | --- | --- | --- | --- | --- | --- | --- | --- | --- |
| similar | not inhibited | 0.5 | initial accumulation phase | 0 | 0.80 | 0.61 | 1.53 | 0.26 | 2.95 | 4.09 | 2.93 | 2.12 | 2.2 | 2.31 | 2.18 | CCN1CC(CCN2CCOCC2)C(c2ccccc2)(c2ccccc2)C1=O (stereo not drawn) [doxapram, 1-ethyl-4-(2-morpholin-4-ylethyl)-3,3-diphenyl-pyrrolidin-2-one] | clear signs of central nervous adverse effects | TASK-1 was the most strongly inhibited ion channel | replaced at the ion channel by ketodoxapram | about equal | Accumulation in the brain relative to ketodoxapram (in vivo; iv): 60-500 times; Detection of doxapram after ketodoxapram administration (in vivo; iv): not detected; Kp (in vivo; [9]): 0.0024; Kp at 30 min (in vivo; [9]): 0.001; IC50 (porcine TASK-1): 1 µM; Time to cardioversion [1]: < 30 min; Cardioversion of persistent atrial fibrillation [2, 10]: sufficient for cardioversion in all tested animals; Time to cardioversion to sinus rhythm after injection, on average [2, 10]: 3 min; Metabolism of doxapram in pigs ([6]; doxapram 1.8 mg/kg body weight, plasma samples, FIG. 3): rapidly metabolized to ketodoxapram; half-life [6, 14]: 1.92 h; AUC(0-inf) ([6]; pig 99, plasma): 3.18 µg·h/mL; Cmax ([6]; pig 99, plasma): 5.06 µg/mL; AUC ([6]; pig 99, plasma): 3.13 µg·h/mL; half-life [6, 15]: 2.65 h; AUC(0-inf) ([6]; pig 100, plasma): 3.48 µg·h/mL; Cmax ([6]; pig 100, plasma): 4.9 µg/mL; AUC ([6]; pig 100, plasma): 3.47 µg·h/mL; half-life [6, 16]: 1.79 h; half-life [6, 17]: 2 to 3 h |
| similar | not inhibited | 1.25 | initial accumulation phase | 1 | 6.99 | 4.65 | 12.36 | 3.96 | 0.308 | 0.0479 | 0.282 | 2.81 | 0.157 | 0.0318 | 0.149 | CCN1CC(CCN2CCOCC2=O)C(c2ccccc2)(c2ccccc2)C1=O (stereo not drawn) [ketodoxapram, 4-(2-(1-ethyl-5-oxo-4,4-diphenyl-3-pyrrolidinyl)ethyl)-3-morpholinone] | not observed | TASK-1 was the most strongly inhibited ion channel | stronger affinity to TASK-1 | about equal | Concentration in brain tissue compared with doxapram in the same tissue (in vivo): several orders of magnitude lower; Crossing of the blood-brain barrier compared with doxapram (in vivo): much less effectively than doxapram; Brain concentration as percentage of the corresponding doxapram concentration (in vivo; iv): 0.2-1.7%; Cardioversion of persistent atrial fibrillation [2, 18]: sufficient for cardioversion in all tested animals; Time to cardioversion to sinus rhythm after injection, on average [2, 18]: 3 min; TASK-1 inhibition compared with doxapram (TASK-1 [7]): significantly stronger than inhibition by doxapram; Effect on TASK-1 compared with doxapram (TASK-1 [3]; [11]): significantly stronger than the effect of doxapram; Initial metabolite accumulation phase [8]: 4 to 5 days; Plasma concentration as percentage of parent compound doxapram [8]: about 10%; half-life [6, 14]: 2.59 h; AUC(0-inf) ([6]; pig 99, plasma): 0.504 µg·h/mL; Cmax ([6]; pig 99, plasma): 0.0635 µg/mL; AUC ([6]; pig 99, plasma): 0.442 µg·h/mL; half-life [6, 15]: 3.48 h; AUC(0-inf) ([6]; pig 100, plasma): 0.265 µg·h/mL; Cmax ([6]; pig 100, plasma): 0.0483 µg/mL; AUC ([6]; pig 100, plasma): 0.254 µg·h/mL; half-life [6, 16]: 2.36 h; half-life [6, 17]: 2 to 3 h |
